# Measurements as given in patent US8802664B2 (Bioproject, priority 2010, dated 2014).
# Where a name gives a salt, the structure may show the parent alone.
row,Structure (SMILES),melting point [°C]
1,"Cc1cc(C(OC2CCN(C)CC2)c2nc3ccccc3s2)ccc1F (centres unmarked) (as salt: oxalate) [Example 34, 2-[(4-fluoro-3-methylphenyl)(1-methylpiperidin-4-yloxy)methyl]benzothiazole]",120
2,"CN1CCC(OC(c2cccc(C(=O)N(C)c3ccccc3)c2)c2nc3ccccc3s2)CC1 (centres unmarked) (as salt: oxalate) [Example 223, 3-[benzothiazol-2-yl(1-methylpiperidin-4-yloxy)methyl]-N-methyl-N-phenylbenzamide]",125
3,"CN1CCC(OC(c2cccc(OCc3cccc(F)c3)c2)c2nc3ccccc3s2)CC1 (centres unmarked) (as salt: oxalate) [Example 171, 2-[[3-(3-fluorobenzyloxy)phenyl](1-methylpiperidin-4-yloxy)methyl]benzothiazole]",65
4,"CN1CCC(OC(c2cccc(Cl)c2)c2nc3ccccc3[nH]2)CC1 (centres unmarked) (as salt: oxalate) [Example 225, 2-[(3-chlorophenyl)(1-methylpiperidin-4-yloxy)methyl]-1H-benzimidazole]",158
5,"CN1CCC(OC(c2ccc3c(c2)OCO3)c2nc3ccccc3s2)CC1 (centres unmarked) (as salt: hydrochloride) [Example 20, 2-[benzo[1,3]dioxol-5-yl(1-methylpiperidin-4-yloxy)methyl]benzothiazole]",110
6,"CN1CCC(NC(c2cccc(OCCCC3(C)OCCO3)c2)c2nc3ccccc3[nH]2)CC1 (centres unmarked) (as salt: oxalate) [Example 174, ((1H-benzimidazol-2-yl)-{3-[3-(2-methyl-[1,3]dioxolan-2-yl)-propoxy]phenyl}methyl)(1-methylpiperidin-4-yl)amine]",120
7,"CN1CCC(OC(c2cccc(OCCCCN3CCOCC3)c2)c2nc3ccccc3s2)CC1 (centres unmarked) (as salt: oxalate) [Example 322, 2-{(1-methylpiperidin-4-yloxy)[3-(4-morpholin-4-yl-butoxy)phenyl]methyl}benzothiazole]",61
8,"CN1CCC(NC(c2cccc(SCc3ccccc3)c2)c2nc3ccccc3[nH]2)CC1 (centres unmarked) (as salt: oxalate) [Example 104, [(1H-benzimidazol-2-yl)(3-benzylsulfanylphenyl)methyl](1-methylpiperidin-4-yl)amine]",127
9,"CN1CCC(NC(c2cccc(-c3ccccc3)c2)c2nc3ccccc3s2)CC1 (centres unmarked) (as salt: oxalate) [Example 102, (benzothiazol-2-ylbiphenyl-3-ylmethyl)(1-methylpiperidin-4-yl)amine]",112
10,"CN1CCC(NC(c2cc3ccccc3o2)c2nc3ccccc3s2)CC1 (centres unmarked) (as salt: oxalate) [Example 37, [(benzofuran-2-yl)(benzothiazol-2-yl)methyl](1-methylpiperidin-4-yl)amine]",125
11,"CCc1cccc(C(OC2CCN(C)CC2)c2nc3ccccc3s2)c1 (centres unmarked) (as salt: oxalate) [Example 152, 2-[(3-ethylphenyl)(1-methylpiperidin-4-yloxy)methyl]benzothiazole]",123
12,"Cc1ccc(C(OC2CCN(C)CC2)c2nc3ccccc3s2)cc1 (centres unmarked) (as salt: oxalate) [Example 7, 2-[(1-methylpiperidin-4-yloxy)-p-tolylmethyl]benzothiazole]",177
13,"COc1cccc(COc2cccc(C(NC3CCN(C)CC3)c3nc4ccccc4[nH]3)c2)c1 (centres unmarked) (as salt: oxalate) [Example 125, {(1H-benzimidazol-2-yl)[3-(3-methoxybenzyloxy)phenyl]methyl}(1-methylpiperidin-4-yl)amine]",135
14,"CN1CCC(OC(c2cccc(OCCF)c2)c2nc3ccccc3s2)CC1 (centres unmarked) (as salt: oxalate) [Example 163, 2-[[3-(2-fluoroethoxy)phenyl](1-methylpiperidin-4-yloxy)methyl]benzothiazole]",147
15,"C=CCOc1cccc(C(NC2CCN(C)CC2)c2nc3ccccc3[nH]2)c1 (centres unmarked) (as salt: oxalate) [Example 112, [(3-allyloxyphenyl)(1H-benzimidazol-2-yl)methyl](1-methylpiperidin-4-yl)amine]",125
16,"COc1cccc(COc2cccc(C(OC3CCN(C)CC3)c3nc4ccccc4s3)c2)c1 (centres unmarked) (as salt: oxalate) [Example 185, 2-[[3-(3-methoxybenzyloxy)phenyl](1-methylpiperidin-4-yloxy)methyl]benzothiazole]",77
17,"CC(=O)c1ccc(-c2cccc(C(OC3CCN(C)CC3)c3nc4ccccc4[nH]3)c2)cc1 (centres unmarked) (as salt: oxalate) [Example 108, 1-{3′-[(1H-benzimidazol-2-yl)(1-methylpiperidin-4-yloxy)methyl]biphenyl-4-yl}ethanone]",115

# Second part, the molecule after the results:
row,melting point [°C],Structure (SMILES)
1,103,"CN1CCC(OC(c2cccc(N3CCC(O)C3)c2)c2nc3ccccc3s2)CC1 (centres unmarked) (as salt: oxalate) [Example 406, 1-{3-[benzothiazol-2-yl(1-methylpiperidin-4-yloxy)methyl]phenyl}pyrrolidin-3-ol]"
2,85,"CN1CCC(OC(c2cccc(SCCN)c2)c2nc3cc(F)ccc3[nH]2)CC1 (centres unmarked) (as salt: oxalate) [Example 428, 2-{3-[(5-fluoro-1H-benzimidazol-2-yl)(1-methylpiperidin-4-yloxy)methyl]phenylsulfanyl}ethylamine]"
3,107,CN1CCC(OC(c2nc3ccccc3[nH]2)c2cc(OC(F)(F)F)ccc2Cl)CC1 (centres unmarked) (as salt: oxalate) [Example 524]
4,160,"CN1CCC(OC(c2ccc3ccsc3c2)c2nc3ccccc3[nH]2)CC1 (centres unmarked) (as salt: oxalate) [Example 556, 2-[benzo[b]thiophen-6-yl(1-methylpiperidin-4-yloxy)methyl]-1H-benzimidazole]"
5,140,"CN1CCC(OC(c2cccc(SCCCCCN)c2)c2nc3ccccc3[nH]2)CC1 (centres unmarked) (as salt: oxalate) [Example 381, 5-{3-[(1H-benzimidazol-2-yl)(1-methylpiperidin-4-yloxy)methyl]phenylsulfanyl}pentylamine]"
6,135,"CN1CCC(OC(c2cccc(C#CCCCCN)c2)c2nc3ccccc3s2)CC1 (centres unmarked) (as salt: oxalate) [Example 319, 6-{3-[benzothiazol-2-yl(1-methylpiperidin-4-yloxy)methyl]phenyl}hex-5-ynylamine]"
7,45,"CN1CCC(OC(c2cccc(OCCO)c2)c2nc3ccccc3s2)CC1 (centres unmarked) (as salt: oxalate) [Example 244, 2-{3-[benzothiazol-2-yl(1-methylpiperidin-4-yloxy)methyl]phenoxy}ethanol]"
8,70,"CN1CCC(COC(c2cccc(Br)c2)c2nc3cc(F)ccc3[nH]2)C1 (centres unmarked) (as salt: oxalate) [Example 449, 2-[(3-bromophenyl)(1-methylpyrrolidin-3-ylmethoxy)methyl]-5-fluoro-1H-benzimidazole]"
9,110,Cc1ccc(C(OC2CCN(C)CC2)c2nc3ccccc3o2)c(F)c1 (centres unmarked) (as salt: oxalate) [Example 545]
10,103,CN1CCC(OC(c2cccc(N3CCC(F)C3)c2)c2nc3ccccc3s2)CC1 (centres unmarked) (as salt: oxalate) [Example 454]
11,103,CCOCCn1c(C(OC2CCN(C)CC2)c2cccc(C#CCCCCN)c2)nc2ccccc21 (centres unmarked) (as salt: oxalate) [Example 500]
12,125,"CN1CCC(OC(c2cccc(SCCNC(=N)N)c2)c2nc3ccccc3s2)CC1 (centres unmarked) (as salt: hydrochloride) [Example 302, N-(2-{3-[benzothiazol-2-yl(1-methylpiperidin-4-yloxy)methyl]phenylsulfanyl}ethyl)guanidine]"
13,91,CN1CCC(OC(c2cccc(OC3CCC(N)C3)c2)c2nc3ccccc3s2)CC1 (centres unmarked) (as salt: oxalate) [Example 453]
14,170,"CN1CCC(OC(c2ccc3cc[nH]c3c2)c2nc3ccccc3[nH]2)CC1 (centres unmarked) (as salt: oxalate) [Example 550, 2-[(1H-indol-6-yl)(1-methylpiperidin-4-yloxy)methyl]-1H-benzimidazole]"
15,125,"CN1CCC(OC(c2cccc(C=CCCCO)c2)c2nc3ccccc3[nH]2)CC1 (centres unmarked) (as salt: oxalate) [Example 389, 5-{3-[(1H-benzimidazol-2-yl)(1-methylpiperidin-4-yloxy)methyl]phenyl}pent-4-en-1-ol]"
16,80,"CN1CCC(NC(c2cccc(C#CCCCCN)c2)c2nc3ccccc3s2)CC1 (centres unmarked) (as salt: oxalate) [Example 420, {[3-(6-aminohex-1-ynyl)phenyl]benzothiazol-2-yl-methyl}(1-methylpiperidin-4-yl)amine]"
17,105,"CN1CCC(OC(c2cccc(N3CCC(=O)C3)c2)c2nc3ccccc3s2)CC1 (centres unmarked) (as salt: oxalate) [Example 443, 1-{3-[benzothiazol-2-yl(1-methylpiperidin-4-yloxy)methyl]phenyl}pyrrolidin-3-one]"
18,74,"CC(=O)OC1CCN(c2cccc(C(OC3CCN(C)CC3)c3nc4ccccc4s3)c2)CC1 (centres unmarked) (as salt: oxalate) [Example 413, acetic acid 1-{3-[benzothiazol-2-yl(1-methylpiperidin-4-yloxy)methyl]phenyl}piperidin-4-yl ester]"
19,160,"CN1CCC(OC(c2cccc(OCCN3CCCCC3)c2)c2nc3ccccc3[nH]2)CC1 (centres unmarked) (as salt: oxalate) [Example 356, 2-{(1-methylpiperidin-4-yloxy)[3-(2-piperidin-1-yl-ethoxy)phenyl]methyl}-1H-benzimidazole]"
20,95,CN1CCC(OC(c2cccc(OC3CCC(N)CC3)c2)c2nc3ccccc3s2)CC1 (centres unmarked) (as salt: oxalate) [Example 477]
21,180,CN1CCC(OC(c2cccc(SCCCCN)c2)c2nc3cc(F)c(F)cc3[nH]2)CC1 (centres unmarked) (as salt: oxalate) [Example 495]
22,76,"CN1CCC(OC(c2cccc(I)c2)c2nc3ccccc3n2C)CC1 (centres unmarked) (as salt: oxalate) [Example 472, 2-[(3-iodophenyl)(1-methylpiperidin-4-yloxy)methyl]-1-methyl-1H-benzimidazole]"
23,200,CN1CCC(COC(c2cccc(C#CCCCN)c2)c2nc3cc(F)ccc3[nH]2)C1 (centres unmarked) (as salt: oxalate) [Example 462]
24,125,Cc1cc(F)c(C(OC2CCN(C)CC2)c2nc3ccccc3s2)c(F)c1 (centres unmarked) (as salt: oxalate) [Example 531]
